Results reported in patent US20190375723A1, “New Naphtho[2,3-B]Furan Derivatives” (Boston Biomedical, Inc., priority 2016, published 2019).

How the values were obtained:
[1] = test system: HCT-116 cells; test: Proliferation inhibition assay of cancer cells; type: cell-based; settings: Homo sapiens, 96 h, adherent culture with 10% FBS, cultured for 4 days, Cell Titer-Glo, read-out: IC50 (μM) HCT (Bulk IC50 value)
Method: HCT-116 cells were obtained from American Type Culture Collection (ATCC). HCT-116 cells were cultured at 37° C. in the presence of 5% CO2 using McCoy's 5a medium containing 10% fetal bovine serum (FBS) and 1% penicillin/streptomycin. After cells were seeded at 300-600 cells/well onto μClear-plate black 384 well (Greiner bio-one Cat. No. 781091), a test substance was added such that the final concentration of DMSO is 0.1%, and cultured for 4 days. The number of living cells was then counted using Cell Titer-Glo (registered trademark) Luminescent Cell Viability Assay (Promega) to calculate a concentration for 50% inhibition of cell proliferation of respective test substances (Bulk IC50 value; μM).

[2] = test system: HCT-116 cells; test: Inhibition assay of cancer cell sphere-forming ability; type: cell-based; settings: Homo sapiens, 96 h, ultra-low attachment plate, serum-free DMEM/F12 with B27, EGF, bFGF, insulin, cultured for 4 days, Cell Titer-Glo
Method: HCT-116 cells were obtained from American Type Culture Collection (ATCC). HCT-116 cells were cultured at 37° C. in the presence of 5% CO2 using McCoy's 5a medium containing 10% fetal bovine serum (FBS) and 1% penicillin/streptomycin. The HCT-116 cells were seeded onto 384 Well Black Clear Bottom Ultra-Low Attachment Microplate (Corning Cat. No. 3827) using DMEM/F12 medium containing 2% B27 supplement (GIBCO), 20 ng/mL epidermal growth factor (EGF) (peprotech), 10 ng/mL basic fibroblast growth factor (bFGF) (peprotech), 5 μg/mL insulin (Sigma), and 1% penicillin/streptomycin to be 350-800 cells/well. A test substance was added so that the final concentration of DMSO is 0.1%, and then cultured for 4 days. The number of living cells was then counted using Cell Titer-Glo (registered trademark) Luminescent Cell Viability Assay (Promega) to calculate the concentration for 50% inhibition of cell proliferation of respective test substances (Sphere IC50 value; μM) (this test is a method which evaluates the functions of cancer stem cells (see Non Patent Literature 4)).

CC(=O)c1cc2c(o1)C(=O)c1c(Cl)ccc(O)c1C2=O [Example 1, 2-Acetyl-8-chloro-5-hydroxynaphtho[2,3-b]furan-4,9-dione]
IC50 [1]: 0.63 µM
IC50 [2]: 0.24 µM

CC(=O)c1cc2c(o1)C(=O)c1ccc(Br)c(O)c1C2=O [Example 2, 2-Acetyl-6-bromo-5-hydroxynaphtho[2,3-b]furan-4,9-dione]
IC50 [1]: 0.63 µM
IC50 [2]: 5.12 µM

CC(=O)c1cc2c(o1)C(=O)c1c(ccc(Br)c1O)C2=O [Example 3, 2-Acetyl-7-bromo-8-hydroxynaphtho[2,3-b]furan-4,9-dione]
IC50 [1]: 4.93 µM
IC50 [2]: 6.39 µM
